# Assay results taken from US20240182596A1, “ANTI-NAPI2B ANTIBODIES AND ANTIBODY-DRUG-CONJUGATES BASED THEREON, THERAPEUTIC METHODS AND USES THEREOF” (Tubulis GmbH, priority 2022, published 2024).
# System: OVCAR-3 cells
# Experiment: In vitro inhibition of Topoisomerase-I by delivery of Exatecan via the ADC (DNA-damage markers)
# Assay type: cell-based
# Details: 5 μg/mL, 72 h
# Procedure: OVCAR-3 cells were treated with 5 μg/mL TUB-040 or 5 nM free Exatecan for 72 h. Cells were stained with Live/Dead stain and for the DNA-damage markers active caspase-3, cleaved PARP and phosphorylated H2A.X (Ser-139) and analyzed by flow cytometry. Graphs show means of n=2±SEM (FIG. 9).
substance,measurement,value
TUB-040,"Induction of DNA-damage markers (active caspase-3, cleaved PARP, phosphorylated H2A.X)",induces DNA-damage markers
